Results as given in patent US12454536B2, “Deuterated 7-(3-(4-(2-([18F]fluoro)ethoxy)phenyl)propyl)-2-(furan-2-yl)-7H- pyrazolo [4,3-e][1,2,4]triazolo[1,5-C]pyrimidine-5-amine derivatives” (HELMHOLTZ-ZENTRUM DRESDEN-ROSSENDORF E.V., priority 2019, dated 2025).

Legend:
[1] = In-vivo metabolite study in female CD-1 mice (radio-HPLC); conditions: for intact radiotracer in the brain / intact radiotracer in the plasma: radio-HPLC
Procedure: In the in-vivo metabolite study in female CD-1 mice after 15 min p.i. in the brain 93% (radio-HPLC, n=3, extraction yield 98%) and in the plasma 79% (radio-HPLC, n=3, extraction yield 83%) of intact radiotracers have been detected.

[2] = biological target: hA1 (Homo sapiens, UniProt P30542); assay: biochemical
[3] = biological target: hA2A (Homo sapiens, UniProt P29274); assay: Affinity for human adenosine A2A receptor (Ki); type: binding
[4] = biological target: adenosine A2A receptors (Mus musculus, UniProt Q60613); assay: Radiotracer affinity (Kd, Bmax); type: binding; conditions: n=5
[5] = Stability of radiotracer in solutions and porcine plasma; type: in vitro ADME; conditions: 37° C., one hour
Procedure: [^18F]FLUDA has shown to be stable in a sodium chloride, PBS, n-octanol solution and in porcine plasma at 37° C. for one hour (PBS=phosphate buffered salt solution). Using the conventional “Shake-flask” method a log D74=2.01±0.07 (n=3) has been established.

[6] = system: striatum (brain slices); assay: In-vitro autoradiography in mouse brain slices; type: binding; conditions: brain slices of mice
[7] = PET study in healthy CD-1 mice; type: in vivo; conditions: striatum, 15 min p.i., n=3
[8] = female CD-1 mice, 15 min p.i., n=3
[9] = repeated study (Example 6A / Comparison example 1A)
[10] = further tests, taking into account the above data, n=3

hA1, sequence (P30542 whole entry): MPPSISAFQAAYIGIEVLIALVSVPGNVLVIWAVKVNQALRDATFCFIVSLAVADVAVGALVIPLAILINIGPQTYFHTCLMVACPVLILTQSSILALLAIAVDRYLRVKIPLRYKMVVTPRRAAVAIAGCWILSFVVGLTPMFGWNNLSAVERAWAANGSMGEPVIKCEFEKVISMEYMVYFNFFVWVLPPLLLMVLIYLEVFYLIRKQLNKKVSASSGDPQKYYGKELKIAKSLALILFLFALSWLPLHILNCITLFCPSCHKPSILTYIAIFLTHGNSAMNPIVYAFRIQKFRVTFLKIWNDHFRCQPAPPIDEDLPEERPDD
hA2A, sequence (P29274 whole entry): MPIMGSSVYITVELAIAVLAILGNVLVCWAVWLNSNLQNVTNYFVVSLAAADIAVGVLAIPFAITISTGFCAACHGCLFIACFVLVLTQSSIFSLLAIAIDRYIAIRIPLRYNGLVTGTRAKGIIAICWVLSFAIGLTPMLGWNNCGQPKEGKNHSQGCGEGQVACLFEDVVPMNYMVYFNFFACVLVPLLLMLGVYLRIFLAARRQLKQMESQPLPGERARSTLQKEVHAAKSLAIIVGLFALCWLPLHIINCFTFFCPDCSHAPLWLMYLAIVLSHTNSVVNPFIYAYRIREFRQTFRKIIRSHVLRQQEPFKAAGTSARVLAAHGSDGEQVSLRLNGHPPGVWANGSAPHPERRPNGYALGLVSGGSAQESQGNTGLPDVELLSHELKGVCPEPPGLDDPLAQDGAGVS
adenosine A2A receptors, sequence (Q60613 whole entry): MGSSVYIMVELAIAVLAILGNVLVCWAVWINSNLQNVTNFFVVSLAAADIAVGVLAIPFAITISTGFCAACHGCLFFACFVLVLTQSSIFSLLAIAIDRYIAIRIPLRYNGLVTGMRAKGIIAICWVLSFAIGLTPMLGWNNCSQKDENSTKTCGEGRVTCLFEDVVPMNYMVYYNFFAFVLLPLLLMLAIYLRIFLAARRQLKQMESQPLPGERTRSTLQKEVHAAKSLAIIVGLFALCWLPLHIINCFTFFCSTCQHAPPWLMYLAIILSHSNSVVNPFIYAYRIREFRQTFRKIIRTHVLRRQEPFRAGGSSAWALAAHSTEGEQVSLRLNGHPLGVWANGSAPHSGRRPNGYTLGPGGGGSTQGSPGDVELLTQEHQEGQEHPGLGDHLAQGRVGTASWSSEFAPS

Row | SMILES | intact radiotracer in the brain [1, 8] [%] | intact radiotracer in the plasma [1, 8] [%] | intact radiotracer in the brain [1, 9] [%] | intact radiotracer in the plasma [1, 9] [%] | Ki ([2]; n=4) [nM] | Ki ([3]; first determination) [nM] | Ki [3, 10] [nM] | Ki ([2]; first determination) [nM] | Ki [2, 10] [nM] | Bmax [4] [fmol/mg] | stability in PBS [5] | stability in n-octanol solution [5] | stability in porcine plasma [5] | stability in sodium chloride solution [5] | metabolic stability compared to 18F-labeled compound D ([1]; mouse, in vivo) | change of the radiotracer by A2A-selective ligands [6] | enrichment of the radiotracer in the target region (striatum) [6] | cerebral uptake SUV [7]
1 | Nc1nc2c(cnn2CCCc2ccc(OCC[18F])cc2)c2nc(-c3ccco3)nn12 (single isomer, unassigned) [[^18F]D, 7-(3-(4-(2-([^18F]fluoro)ethoxy)phenyl)propyl)-2-(furan-2-yl)-7H-pyrazolo[4,3-e][1,2,4]triazolo[1,5-c]pyrimidine-5-amine, reference compound] | 68 | 70 | 71 | 41 | 203 | – | – | – | – | – | – | – | – | – | – | – | – | –
2 | [2H]C([2H])(F)C([2H])([2H])Oc1ccc(CCCn2ncc3c2nc(N)n2nc(-c4ccco4)nc32)cc1 (single isomer, unassigned) [FLUDA, 7-(3-(4-(2-(fluoro)ethoxy-1,1,2,2-d4)phenyl)propyl)-2-(furan-2-yl)-7H-pyrazolo[4,3-e][1,2,4]triazolo[1,5-c]pyrimidine-5-amine] | – | – | – | – | – | 0.609 | 0.74 ± 0.26 | 767 | > 1000 | – | – | – | – | – | – | – | – | –
3 | [2H]C([2H])([18F])C([2H])([2H])Oc1ccc(CCCn2ncc3c2nc(N)n2nc(-c4ccco4)nc32)cc1 [[^18F]FLUDA, 7-(3-(4-(2-([^18F]fluoro)ethoxy-1,1,2,2-d4)phenyl)propyl)-2-(furan-2-yl)-7H-pyrazolo[4,3-e][1,2,4]triazolo[1,5-c]pyrimidine-5-amine] | 93 | 79 | 100 | 82 | – | – | – | – | – | 556 ± 143 | stable | stable | stable | stable | significantly higher | change of the radiotracer by means of A2A-selective ligands | selective enrichment | 0.8
